In this experiment the target is YAP1 (Yes-associated protein, YAP) (Homo sapiens, UniProt P46937). Kind of experiment: SPR with immobilized full-length YAP. In kind it is binding.
YAP1 (Yes-associated protein, YAP), sequence (P46937 whole entry): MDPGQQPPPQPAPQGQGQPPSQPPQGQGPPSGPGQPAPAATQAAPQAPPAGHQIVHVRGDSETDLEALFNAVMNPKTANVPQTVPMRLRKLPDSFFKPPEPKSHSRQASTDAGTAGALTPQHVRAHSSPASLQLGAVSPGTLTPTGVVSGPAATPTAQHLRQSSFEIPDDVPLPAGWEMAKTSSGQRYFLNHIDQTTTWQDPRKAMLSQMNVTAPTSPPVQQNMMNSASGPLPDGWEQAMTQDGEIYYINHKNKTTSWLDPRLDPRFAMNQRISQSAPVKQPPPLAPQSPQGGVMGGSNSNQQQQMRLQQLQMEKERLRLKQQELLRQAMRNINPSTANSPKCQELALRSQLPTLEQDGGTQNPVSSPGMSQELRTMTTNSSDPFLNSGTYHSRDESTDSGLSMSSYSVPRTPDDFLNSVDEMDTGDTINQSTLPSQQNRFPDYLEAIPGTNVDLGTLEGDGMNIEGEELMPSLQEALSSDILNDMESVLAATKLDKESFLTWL

Usually Kd stands for the equilibrium constant for the complex coming apart. Lower therefore signals a tighter complex. `COc1ccc(-c2cc(-c3ccccc3)nc3c2CC(=O)Nc2ccccc2-3)cc1OC` [NSC682769] had a Kd of 738 nM. This counts as sub-micromolar.

For the origin of these results see paper PMC8005474 (Journal of neuro-oncology, 2021).
